Patent US20260325561A1, “4'-SUBSTITUTED NUCLEOSIDES AND NUCLEOTIDES AS ANTIVIRAL AGENTS” (THE SCRIPPS RESEARCH INSTITUTE, priority 2023, published 2026)

Columns and labels:
SARS-CoV-2 = test: microbe, parasite or virus in culture; format: cell-based, SARS-CoV-2 strain USA-WA1/2020; settings: Severe acute respiratory syndrome coronavirus 2, HeLa-ACE2, 24 h, read-out: SARS-CoV-2 / HeLa-ACE2 EC50
in vitro [1] = settings: human, mrc5 cells
CHIKV = test: microbe, parasite or virus in culture; format: cell-based, CHIKV strain 181/25; settings: Chikungunya virus, HepG2, 24 h, read-out: CHIKV / HepG2 EC50
HCoV-229E = test: microbe, parasite or virus in culture; format: cell-based; settings: Human coronavirus 229E, MRC5, 120 h, read-out: HCoV-229E/MRC5 EC50
in vitro [2] = settings: human, h1 hela cells
HRV 14 = test: microbe, parasite or virus in culture; format: cell-based, Human Rhinovirus 14 strain 1059; settings: Rhinovirus B, H1-HeLa, 48 h, read-out: HRV / H1 HeLa B 14 EC50
in vitro [3] = settings: human, hepg2 cells
in vitro [4] = settings: human, hct-8 cells
Cytotoxicity, HFF = format: cell-based; settings: human, hff cells; read-out: HCMV/HFF CC50
HRV 16 = test: microbe, parasite or virus in culture; format: cell-based, Human Rhinovirus 16 strain 11757; settings: Rhinovirus A, H1-HeLa, 48 h, read-out: HRV / H1 HeLa A16 EC50
in vitro [5] = settings: human, hep2 cells
RSV A2 = test: microbe, parasite or virus in culture; format: cell-based; settings: human respiratory syncytial virus, HEp-2, 72 h, read-out: RSV A2 / Hep2 EC50
ZIKV = test: microbe, parasite or virus in culture; format: cell-based, ZIKV MR766; settings: Zika virus, HepG2, 24 h, read-out: ZIKV / HepG2 EC50
HCMV = test: HCMV/HFF antiviral assay; format: cell-based; settings: Human betaherpesvirus 5, HFF
YFV = test: microbe, parasite or virus in culture; format: cell-based, YFV strain 17D; settings: Yellow fever virus, HepG2, 24 h, read-out: YFV / HepG2 EC50
HCoV-OC43 = test: microbe, parasite or virus in culture; format: cell-based, Human Coronavirus; settings: Betacoronavirus 1, OC43, HCT-8, 48 h, read-out: HCoV-OC43/HCT-8 EC50
in vitro [6] = settings: human, hela-ace2 cells
DENV-2 = test: microbe, parasite or virus in culture; format: cell-based, DENV-2 16681; settings: Dengue virus, DENV2, HepG2, 24 h, read-out: DENV-2 / HepG2 EC50
[7] = test system: dengue 2′-0-methyltransferase NS5 domain; settings: role: inhibitor; cited from earlier work
[8] = mouse or rhesus monkey model; cited from earlier work
dengue [9] = settings: cited from earlier work
RNA virus infections = settings: cited from earlier work
dengue [10] = settings: cited from earlier work; remark: listed apart in the source
dengue [11] = settings: cited from earlier work; remark: listed apart in the source

## OC[C@@]1(F)O[C@@H](n2ccc3c(Cl)ncnc32)[C@H](O)[C@@H]1O [Example 4, (2S,3S,4R,5R)-5-(4-chloro-7H-pyrrolo[2,3-d]pyrimidin-7-yl)-2-fluoro-2-(hydroxymethyl)tetrahydrofuran-3,4-diol]
SARS-CoV-2
  EC50: 1 to 10 µM
In vitro [1]
  CC50: > 99 µM
CHIKV
  EC50: 0.1 to 1 µM
HCoV-229E
  EC50: > 10 µM
In vitro [2]
  CC50: 10 to 99 µM
HRV 14
  EC50: 0.1 to 1 µM
In vitro [3]
  CC50 at 72 h: 10 to 99 µM
In vitro [4]
  CC50: 10 to 99 µM
Cytotoxicity, HFF
  CC50: 10 to 99 µM
HRV 16
  EC50: 0.1 to 1 µM
In vitro [5]
  CC50: 10 to 99 µM
RSV A2
  EC50: 0.1 to 1 µM
ZIKV
  EC50: 0.1 to 1 µM
HCMV
  EC50: > 10 µM
YFV
  EC50: < 0.1 µM
HCoV-OC43
  EC50: 0.1 to 1 µM
In vitro [6]
  CC50 at 24 h: 10 to 99 µM
DENV-2
  EC50: < 0.1 µM

## OC[C@@]1(F)O[C@@H](n2ccc3c(F)ncnc32)[C@H](O)[C@@H]1O [Example 13, (2S,3S,4R,5R)-2-fluoro-5-(4-fluoro-7H-pyrrolo[2,3-d]pyrimidin-7-yl)-2-(hydroxymethyl)tetrahydrofuran-3,4-diol]
SARS-CoV-2
  EC50: 0.1 to 1 µM
In vitro [1]
  CC50: > 99 µM
CHIKV
  EC50: 0.1 to 1 µM
HCoV-229E
  EC50: > 10 µM
In vitro [2]
  CC50: 10 to 99 µM
HRV 14
  EC50: 1 to 10 µM
In vitro [3]
  CC50 at 72 h: 1 to 10 µM
In vitro [4]
  CC50: 10 to 99 µM
Cytotoxicity, HFF
  CC50: 10 to 99 µM
HRV 16
  EC50: 0.1 to 1 µM
In vitro [5]
  CC50: 10 to 99 µM
RSV A2
  EC50: 0.1 to 1 µM
HCMV
  EC50: > 10 µM
HCoV-OC43
  EC50: 1 to 10 µM
In vitro [6]
  CC50 at 24 h: 10 to 99 µM
DENV-2
  EC50: < 0.1 µM

## NC(=O)c1cn([C@@H]2O[C@](F)(CO)[C@@H](O)[C@H]2O)c2ncnc(N)c12 [Example 14, 4-amino-7-((2R,3R,4S,5S)-5-fluoro-3,4-dihydroxy-5-(hydroxymethyl)tetrahydrofuran-2-yl)-7H-pyrrolo[2,3-d]pyrimidine-5-carboxamide]
SARS-CoV-2
  EC50: 0.1 to 1 µM
In vitro [1]
  CC50: 1 to 10 µM
HCoV-229E
  EC50: > 10 µM
In vitro [2]
  CC50: 1 to 10 µM
HRV 14
  EC50: > 10 µM
In vitro [3]
  CC50 at 72 h: < 1 µM
In vitro [4]
  CC50: 1 to 10 µM
Cytotoxicity, HFF
  CC50: 1 to 10 µM
HRV 16
  EC50: > 10 µM
In vitro [5]
  CC50: 1 to 10 µM
RSV A2
  EC50: < 0.1 µM
HCMV
  EC50: 0.1 to 1 µM
HCoV-OC43
  EC50: 0.1 to 1 µM
In vitro [6]
  CC50 at 24 h: < 1 µM
DENV-2
  EC50: < 0.1 µM

## Nc1ncnc2c1c(F)cn2[C@@H]1O[C@](F)(CO)[C@@H](O)[C@H]1O [Example 15, (2S,3S,4R,5R)-5-(4-amino-5-fluoro-7H-pyrrolo[2,3-d]pyrimidin-7-yl)-2-fluoro-2-(hydroxymethyl)tetrahydrofuran-3,4-diol]
SARS-CoV-2
  EC50: < 0.1 µM
In vitro [1]
  CC50: 1 to 10 µM
HCoV-229E
  EC50: 0.1 to 1 µM
In vitro [2]
  CC50: < 1 µM
HRV 14
  EC50: > 10 µM
In vitro [3]
  CC50 at 72 h: < 1 µM
In vitro [4]
  CC50: < 1 µM
Cytotoxicity, HFF
  CC50: 1 to 10 µM
HRV 16
  EC50: < 0.1 µM
In vitro [5]
  CC50: 1 to 10 µM
RSV A2
  EC50: > 10 µM
HCMV
  EC50: 1 to 10 µM
HCoV-OC43
  EC50: < 0.1 µM
In vitro [6]
  CC50 at 24 h: < 1 µM
DENV-2
  EC50: < 0.1 µM

## O=c1[nH]cnc2c1c(F)cn2[C@@H]1O[C@](F)(CO)[C@@H](O)[C@H]1O [Example 21, 5-fluoro-7-((2R,3R,4S,5S)-5-fluoro-3,4-dihydroxy-5-(hydroxymethyl)tetrahydrofuran-2-yl)-3,7-dihydro-4H-pyrrolo[2,3-d]pyrimidin-4-one]
SARS-CoV-2
  EC50: > 10 µM
In vitro [1]
  CC50: > 99 µM
HCoV-229E
  EC50: > 10 µM
In vitro [2]
  CC50: > 99 µM
HRV 14
  EC50: > 10 µM
In vitro [3]
  CC50 at 72 h: > 99 µM
In vitro [4]
  CC50: > 99 µM
HRV 16
  EC50: > 10 µM
In vitro [5]
  CC50: > 99 µM
RSV A2
  EC50: > 10 µM
ZIKV
  EC50: > 10 µM
YFV
  EC50: > 10 µM
HCoV-OC43
  EC50: > 10 µM
In vitro [6]
  CC50 at 24 h: > 99 µM
DENV-2
  EC50: > 10 µM

## COc1ncnc2c1c(F)cn2[C@@H]1O[C@](F)(CO)[C@@H](O)[C@H]1O [Example 22, (2S,3S,4R,5R)-2-fluoro-5-(5-fluoro-4-methoxy-7H-pyrrolo[2,3-d]pyrimidin-7-yl)-2-(hydroxymethyl)tetrahydrofuran-3,4-diol]
SARS-CoV-2
  EC50: 1 to 10 µM
In vitro [2]
  CC50: 10 to 99 µM
HRV 14
  EC50: > 10 µM
In vitro [3]
  CC50 at 72 h: 1 to 10 µM
Cytotoxicity, HFF
  CC50: > 99 µM
HRV 16
  EC50: > 10 µM
In vitro [5]
  CC50: 10 to 99 µM
RSV A2
  EC50: > 10 µM
ZIKV
  EC50: 1 to 10 µM
HCMV
  EC50: 1 to 10 µM
YFV
  EC50: 0.1 to 1 µM
In vitro [6]
  CC50 at 24 h: 1 to 10 µM
DENV-2
  EC50: 0.1 to 1 µM

## NC(=O)c1cn([C@@H]2O[C@](F)(CO)[C@@H](O)[C@H]2O)c2ncncc12 [Example 24, 7-((2R,3R,4S,5S)-5-fluoro-3,4-dihydroxy-5-(hydroxymethyl)tetrahydrofuran-2-yl)-7H-pyrrolo[2,3-d]pyrimidine-5-carboxamide]
SARS-CoV-2
  EC50: 0.1 to 1 µM
In vitro [1]
  CC50: > 99 µM
HCoV-229E
  EC50: > 10 µM
In vitro [2]
  CC50: 10 to 99 µM
HRV 14
  EC50: 1 to 10 µM
In vitro [3]
  CC50 at 72 h: 1 to 10 µM
In vitro [4]
  CC50: 10 to 99 µM
Cytotoxicity, HFF
  CC50: 10 to 99 µM
HRV 16
  EC50: > 10 µM
In vitro [5]
  CC50: 10 to 99 µM
RSV A2
  EC50: 0.1 to 1 µM
ZIKV
  EC50: 0.1 to 1 µM
HCMV
  EC50: > 10 µM
YFV
  EC50: 0.1 to 1 µM
HCoV-OC43
  EC50: 0.1 to 1 µM
In vitro [6]
  CC50 at 24 h: 1 to 10 µM
DENV-2
  EC50: < 0.1 µM

## OC[C@@]1(F)O[C@@H](n2cc(Br)c3cncnc32)[C@H](O)[C@@H]1O [Example 25, (2S,3S,4R,5R)-5-(5-bromo-7H-pyrrolo[2,3-d]pyrimidin-7-yl)-2-fluoro-2-(hydroxymethyl)tetrahydrofuran-3,4-diol]
SARS-CoV-2
  EC50: 0.1 to 1 µM
In vitro [1]
  CC50: > 99 µM
HCoV-229E
  EC50: > 10 µM
In vitro [2]
  CC50: 1 to 10 µM
HRV 14
  EC50: > 10 µM
In vitro [3]
  CC50 at 72 h: < 1 µM
In vitro [4]
  CC50: < 1 µM
Cytotoxicity, HFF
  CC50: > 99 µM
HRV 16
  EC50: > 10 µM
In vitro [5]
  CC50: 10 to 99 µM
RSV A2
  EC50: 0.1 to 1 µM
ZIKV
  EC50: < 0.1 µM
HCMV
  EC50: 1 to 10 µM
YFV
  EC50: < 0.1 µM
HCoV-OC43
  EC50: 0.1 to 1 µM
In vitro [6]
  CC50 at 24 h: < 1 µM
DENV-2
  EC50: < 0.1 µM

## Nc1ncnc2c1c(Cl)cn2[C@@H]1O[C@](F)(CO)[C@@H](O)[C@H]1O [Example 33, (2S,3S,4R,5R)-5-(4-amino-5-chloro-7H-pyrrolo[2,3-d]pyrimidin-7-yl)-2-fluoro-2-(hydroxymethyl)tetrahydrofuran-3,4-diol]
SARS-CoV-2
  EC50: < 0.1 µM
In vitro [1]
  CC50: 10 to 99 µM
HCoV-229E
  EC50: > 10 µM
In vitro [2]
  CC50: 1 to 10 µM
HRV 14
  EC50: > 10 µM
In vitro [3]
  CC50 at 72 h: < 1 µM
In vitro [4]
  CC50: < 1 µM
Cytotoxicity, HFF
  CC50: 10 to 99 µM
HRV 16
  EC50: > 10 µM
In vitro [5]
  CC50: 10 to 99 µM
RSV A2
  EC50: < 0.1 µM
HCMV
  EC50: 0.1 to 1 µM
HCoV-OC43
  EC50: 0.1 to 1 µM
In vitro [6]
  CC50 at 24 h: 1 to 10 µM
DENV-2
  EC50: < 0.1 µM

## CC(C)OC(=O)[C@H](C)N[P@](=O)(OC[C@@]1(F)O[C@@H](n2ccc3c(N)ncnc32)[C@H](O)[C@@H]1O)Oc1ccccc1 [Example 48, isopropyl ((S)-(((2S,3S,4R,5R)-5-(4-amino-7H-pyrrolo[2,3-d]pyrimidin-7-yl)-2-fluoro-3,4-dihydroxytetrahydrofuran-2-yl)methoxy)(phenoxy)phosphoryl)-L-alaninate]
SARS-CoV-2
  EC50: 1 to 10 µM
In vitro [2]
  CC50: 10 to 99 µM
HRV 14
  EC50: 1 to 10 µM
In vitro [3]
  CC50 at 72 h: 10 to 99 µM
HRV 16
  EC50: 1 to 10 µM
ZIKV
  EC50: 1 to 10 µM
YFV
  EC50: 1 to 10 µM
In vitro [6]
  CC50 at 24 h: 10 to 99 µM
DENV-2
  EC50: 0.1 to 1 µM

## NC(=O)c1ncn([C@@H]2O[C@H](CO)[C@@H](O)[C@H]2O)n1 [Ribavirin]
[7]
  inhibition of dengue 2′-0-methyltransferase NS5 domain: inhibiting
[8]
  adverse effects induced: induced anemia and thrombocytosis
Dengue [9]
  protection against dengue, mouse model: did not show protection
RNA virus infections
  effect against a range of RNA virus infections: effective
Dengue [10]
  protection against dengue, rhesus monkey model: did not show protection
Dengue [11]
  activity against dengue in tissue culture: works against dengue in tissue culture
